Test results as given in ChEMBL document CHEMBL2413076, “Synthesis and biological evaluation of ursolic acid-triazolyl derivatives as potential anti-cancer agents” (Eur J Med Chem, 2013).

Key:
[1] = tested on: THP-1; assay: Growth inhibition of human THP1 cells assessed as dead cells at 50 uM after 48 hrs by sulforhodamine-B assay relative to control; format: functional; conditions: THP-1, 48 h, read-out: GI
[2] = tested on: MCF7; assay: Growth inhibition of human MCF7 cells assessed as dead cells at 50 uM after 48 hrs by sulforhodamine-B assay relative to control; format: functional; conditions: MCF7, 48 h, read-out: GI
[3] = tested on: MCF7; assay: Growth inhibition of human MCF7 cells assessed as dead cells at 10 uM after 48 hrs by sulforhodamine-B assay relative to control; format: functional; conditions: MCF7, 48 h, read-out: GI
[4] = tested on: HCT-116; assay: Growth inhibition of human HCT116 cells assessed as dead cells at 10 uM after 48 hrs by sulforhodamine-B assay relative to control; format: functional; conditions: HCT-116, 48 h, read-out: GI
[5] = tested on: HCT-116; assay: Growth inhibition of human HCT116 cells assessed as dead cells at 50 uM after 48 hrs by sulforhodamine-B assay relative to control; format: functional; conditions: HCT-116, 48 h, read-out: GI
[6] = tested on: THP-1; assay: Growth inhibition of human THP1 cells assessed as dead cells at 10 uM after 48 hrs by sulforhodamine-B assay relative to control; format: functional; conditions: THP-1, 48 h, read-out: GI
[7] = tested on: A549; assay: Growth inhibition of human A549 cells assessed as dead cells at 10 uM after 48 hrs by sulforhodamine-B assay relative to control; format: functional; conditions: A549, 48 h, read-out: GI
[8] = tested on: A549; assay: Growth inhibition of human A549 cells assessed as dead cells at 50 uM after 48 hrs by sulforhodamine-B assay relative to control; format: functional; conditions: A549, 48 h, read-out: GI
[9] = tested on: THP-1; assay: Growth inhibition of human THP1 cells after 48 hrs by sulforhodamine-B assay; format: functional, cell-based; conditions: THP-1, 48 h
[10] = tested on: MCF7; assay: Growth inhibition of human MCF7 cells after 48 hrs by sulforhodamine-B assay; format: functional, cell-based; conditions: MCF7, 48 h
[11] = tested on: HCT-116; assay: Growth inhibition of human HCT116 cells after 48 hrs by sulforhodamine-B assay; format: functional, cell-based; conditions: HCT-116, 48 h
[12] = tested on: A549; assay: Growth inhibition of human A549 cells after 48 hrs by sulforhodamine-B assay; format: functional, cell-based; conditions: A549, 48 h
[13] = Growth inhibition of human FR2 cells assessed as dead cells at 50 uM after 48 hrs by sulforhodamine-B assay relative to control; format: cell-based; conditions: read-out: GI
[14] = Growth inhibition of human FR2 cells after 48 hrs by sulforhodamine-B assay; format: cell-based; conditions: FR2, 48 h
[15] = Growth inhibition of human FR2 cells assessed as dead cells at 10 uM after 48 hrs by sulforhodamine-B assay relative to control; format: cell-based; conditions: read-out: GI

SMILES: C[C@H]1[C@H](C)CC[C@]2(C(=O)OCc3cn(-c4cccc5ccccc45)nn3)CC[C@]3(C)C(=CC[C@@H]4[C@@]5(C)CCC(=O)C(C)(C)[C@@H]5CC[C@]43C)[C@H]12
- inhibition of growth at 50 µM [1]: 75%
- inhibition of growth at 50 µM [2]: 80%
- inhibition of growth at 10 µM [3]: 40%
- inhibition of growth at 10 µM [4]: 2%
- inhibition of growth at 50 µM [5]: 76%
- inhibition of growth at 10 µM [6]: 47%
- inhibition of growth at 10 µM [7]: 27%
- inhibition of growth at 50 µM [8]: 50%

SMILES: C[C@H]1[C@H](C)CC[C@]2(C(=O)OCc3cn(-c4ccccc4Br)nn3)CC[C@]3(C)C(=CC[C@@H]4[C@@]5(C)CCC(=O)C(C)(C)[C@@H]5CC[C@]43C)[C@H]12
- IC50 [9]: < 0.1 µM
- IC50 [10]: < 0.1 µM
- inhibition of growth at 50 µM [1]: 99%
- inhibition of growth at 50 µM [2]: 99%
- inhibition of growth at 10 µM [3]: 80%
- inhibition of growth at 10 µM [4]: 41%
- inhibition of growth at 50 µM [5]: 99%
- IC50 [11]: 15 µM
- inhibition of growth at 10 µM [6]: 92%
- IC50 [12]: 2.9 µM
- inhibition of growth at 10 µM [7]: 85%
- inhibition of growth at 50 µM [8]: 99%
- inhibition at 48 h, 50 µM [13]: 99%
- IC50 [14]: 69 µM
- inhibition at 48 h, 10 µM [15]: 2%

SMILES: C[C@H]1[C@H](C)CC[C@]2(C(=O)O)CC[C@]3(C)C(=CC[C@@H]4[C@@]5(C)CC[C@H](O)C(C)(C)[C@@H]5CC[C@]43C)[C@H]12 [URSOLIC ACID]
- IC50 [9]: 9.1 µM
- IC50 [10]: 37 µM
- inhibition of growth at 50 µM [1]: 84%
- inhibition of growth at 50 µM [2]: 57%
- inhibition of growth at 10 µM [3]: 36%
- inhibition of growth at 10 µM [4]: 55%
- inhibition of growth at 50 µM [5]: 53%
- IC50 [11]: 42 µM
- inhibition of growth at 10 µM [6]: 31%
- IC50 [12]: 33 µM
- inhibition of growth at 10 µM [7]: 28%
- inhibition of growth at 50 µM [8]: 61%
- inhibition at 48 h, 50 µM [13]: 66%
- IC50 [14]: 31 µM
- inhibition at 48 h, 10 µM [15]: 31%

SMILES: COc1ccccc1-n1cc(COC(=O)[C@]23CC[C@@H](C)[C@H](C)[C@H]2C2=CC[C@@H]4[C@@]5(C)CCC(=O)C(C)(C)[C@@H]5CC[C@@]4(C)[C@]2(C)CC3)nn1
- IC50 [9]: < 0.1 µM
- IC50 [10]: < 0.1 µM
- inhibition of growth at 50 µM [1]: 93%
- inhibition of growth at 50 µM [2]: 91%
- inhibition of growth at 10 µM [3]: 87%
- inhibition of growth at 10 µM [4]: 77%
- inhibition of growth at 50 µM [5]: 94%
- IC50 [11]: 0.3 µM
- inhibition of growth at 10 µM [6]: 82%
- IC50 [12]: < 0.1 µM
- inhibition of growth at 10 µM [7]: 79%
- inhibition of growth at 50 µM [8]: 94%
- inhibition at 48 h, 50 µM [13]: 28%
- IC50 [14]: > 50 µM
- inhibition at 48 h, 10 µM [15]: 5%

SMILES: C[C@H]1[C@H](C)CC[C@]2(C(=O)OCc3cn(-c4ccccc4)nn3)CC[C@]3(C)C(=CC[C@@H]4[C@@]5(C)CCC(=O)C(C)(C)[C@@H]5CC[C@]43C)[C@H]12
- IC50 [9]: 11 µM
- IC50 [10]: 39 µM
- inhibition of growth at 50 µM [1]: 83%
- inhibition of growth at 50 µM [2]: 51%
- inhibition of growth at 10 µM [3]: 28%
- inhibition of growth at 10 µM [4]: 44%
- inhibition of growth at 50 µM [5]: 78%
- IC50 [11]: 14 µM
- inhibition of growth at 10 µM [6]: 54%
- IC50 [12]: 24 µM
- inhibition of growth at 10 µM [7]: 43%
- inhibition of growth at 50 µM [8]: 64%
- inhibition at 48 h, 50 µM [13]: 45%
- IC50 [14]: 82 µM
- inhibition at 48 h, 10 µM [15]: 12%

SMILES: Cc1ccc(-n2cc(COC(=O)[C@]34CC[C@@H](C)[C@H](C)[C@H]3C3=CC[C@@H]5[C@@]6(C)CCC(=O)C(C)(C)[C@@H]6CC[C@@]5(C)[C@]3(C)CC4)nn2)cc1C
- IC50 [9]: 0.9 µM
- IC50 [10]: 5.5 µM
- inhibition of growth at 50 µM [1]: 94%
- inhibition of growth at 50 µM [2]: 99%
- inhibition of growth at 10 µM [3]: 69%
- inhibition of growth at 10 µM [4]: 91%
- inhibition of growth at 50 µM [5]: 99%
- IC50 [11]: < 0.1 µM
- inhibition of growth at 10 µM [6]: 82%
- IC50 [12]: 0.5 µM
- inhibition of growth at 10 µM [7]: 74%
- inhibition of growth at 50 µM [8]: 93%
- inhibition at 48 h, 50 µM [13]: 85%
- IC50 [14]: 10 µM
- inhibition at 48 h, 10 µM [15]: 68%

SMILES: C[C@H]1[C@H](C)CC[C@]2(C(=O)OCc3cn(-c4cccc(Br)c4)nn3)CC[C@]3(C)C(=CC[C@@H]4[C@@]5(C)CCC(=O)C(C)(C)[C@@H]5CC[C@]43C)[C@H]12
- inhibition of growth at 50 µM [1]: 32%
- inhibition of growth at 50 µM [2]: 3%
- inhibition of growth at 50 µM [5]: 10%
- inhibition of growth at 50 µM [8]: 16%

SMILES: C[C@H]1[C@H](C)CC[C@]2(C(=O)OCc3cn(-c4ccc(I)cc4)nn3)CC[C@]3(C)C(=CC[C@@H]4[C@@]5(C)CCC(=O)C(C)(C)[C@@H]5CC[C@]43C)[C@H]12
- inhibition of growth at 50 µM [1]: 1%
- inhibition of growth at 50 µM [2]: 82%
- inhibition of growth at 50 µM [5]: 8%
- inhibition of growth at 50 µM [8]: 2%

SMILES: C#CCOC(=O)[C@]12CC[C@@H](C)[C@H](C)[C@H]1C1=CC[C@@H]3[C@@]4(C)CCC(=O)C(C)(C)[C@@H]4CC[C@@]3(C)[C@]1(C)CC2
- IC50 [9]: 13 µM
- IC50 [10]: 56 µM
- inhibition of growth at 50 µM [1]: 88%
- inhibition of growth at 50 µM [2]: 42%
- inhibition of growth at 10 µM [3]: 22%
- inhibition of growth at 10 µM [4]: 74%
- inhibition of growth at 50 µM [5]: 96%
- IC50 [11]: 2.3 µM
- inhibition of growth at 10 µM [6]: 42%
- IC50 [12]: 15 µM
- inhibition of growth at 10 µM [7]: 50%
- inhibition of growth at 50 µM [8]: 78%
- inhibition at 48 h, 50 µM [13]: 86%
- IC50 [14]: 24 µM
- inhibition at 48 h, 10 µM [15]: 33%

SMILES: C[C@H]1[C@H](C)CC[C@]2(C(=O)OCc3cn(-c4ccc(F)cc4)nn3)CC[C@]3(C)C(=CC[C@@H]4[C@@]5(C)CCC(=O)C(C)(C)[C@@H]5CC[C@]43C)[C@H]12
- inhibition of growth at 50 µM [1]: 2%
- inhibition of growth at 50 µM [2]: 4%
- inhibition of growth at 50 µM [5]: 3%
- inhibition of growth at 50 µM [8]: 3%

SMILES: C[C@H]1[C@H](C)CC[C@]2(C(=O)OCc3cn(-c4ccccc4C(F)(F)F)nn3)CC[C@]3(C)C(=CC[C@@H]4[C@@]5(C)CCC(=O)C(C)(C)[C@@H]5CC[C@]43C)[C@H]12
- inhibition of growth at 50 µM [1]: 73%
- inhibition of growth at 50 µM [2]: 4%
- inhibition of growth at 50 µM [5]: 23%
- inhibition of growth at 50 µM [8]: 46%

SMILES: C[C@H]1[C@H](C)CC[C@]2(C(=O)OCc3cn(-c4ccc(C(F)(F)F)cc4)nn3)CC[C@]3(C)C(=CC[C@@H]4[C@@]5(C)CCC(=O)C(C)(C)[C@@H]5CC[C@]43C)[C@H]12
- inhibition of growth at 50 µM [1]: 27%
- inhibition of growth at 50 µM [2]: 3%
- inhibition of growth at 50 µM [5]: 16%
- inhibition of growth at 50 µM [8]: 30%

SMILES: C[C@H]1[C@H](C)CC[C@]2(C(=O)OCc3cn(-c4ccccc4F)nn3)CC[C@]3(C)C(=CC[C@@H]4[C@@]5(C)CCC(=O)C(C)(C)[C@@H]5CC[C@]43C)[C@H]12
- inhibition of growth at 50 µM [1]: 49%
- inhibition of growth at 50 µM [2]: 15%
- inhibition of growth at 50 µM [5]: 12%
- inhibition of growth at 50 µM [8]: 18%

SMILES: C[C@H]1[C@H](C)CC[C@]2(C(=O)OCc3cn(-c4ccc(Cl)cc4)nn3)CC[C@]3(C)C(=CC[C@@H]4[C@@]5(C)CCC(=O)C(C)(C)[C@@H]5CC[C@]43C)[C@H]12
- inhibition of growth at 50 µM [1]: 9%
- inhibition of growth at 50 µM [2]: 52%
- inhibition of growth at 50 µM [5]: 49%
- inhibition of growth at 50 µM [8]: 26%
